Source: ChEMBL document CHEMBL2375335, “Discovery of a novel series of non-nucleoside thumb pocket 2 HCV NS5B polymerase inhibitors” (Bioorg Med Chem Lett, 2013)
pIC50: −log10 of the molar value. Each block holds one compound with its values, some of them ahead of it. Activity calls are given as the source filed them. The rule behind the calls is not given here.

Tests used:
[1] = Inhibition of HCV genotype 1b isolate BK NS5B Cdelta21 RNA dependent RNA polymerase using [3H]UTP as substrate incubated for 25 mins prior to substrate addition measured after 120 mins by scintillation proximity assay; parameters: species or system Hepatitis C virus (isolate BK)
[2] = Half life in human liver microsomes at 10 uM; type: ADME, Microsome
[3] = Permeability from apical to basal side of human Caco2 cells at pH 7.4; type: ADME, cell-based; conditions: Caco-2, pH 7.4, read-out: permeability
[4] = Solubility of the compound in buffer after 24 hrs at pH 7.2 by shake flask method; type: physicochemical
[5] = test system: Hepatitis C virus (isolate BK); test: Ratio of IC50 for HCV genotype 1b isolate BK NS5B Cdelta21 RNA dependent RNA polymerase L419M mutant to IC50 for HCV genotype 1b isolate BK wild type NS5B Cdelta21 RNA dependent RNA polymerase
[6] = Inhibition of calf thymus RNA polymerase 2; parameters: species or system Bos taurus
Cytochrome P450 2C19 = Cytochrome P450 2C19 (Homo sapiens, UniProt P33261); test: Inhibition of CYP2C19 (unknown origin); type: ADME
Hepatitis C virus = test: Antiviral activity against HCV genotype 1b infected in HuH7 cells assessed as inhibition of viral replication after 48 hrs by RT-PCR analysis; type: functional, organism-based; conditions: Hepacivirus hominis, Huh-7
Cytochrome P450 1A2 = target: T1, Cytochrome P450 1A2 (Homo sapiens, UniProt P05177); test: Inhibition of CYP1A2 (unknown origin); type: ADME
T1 sequence (P05177 whole entry): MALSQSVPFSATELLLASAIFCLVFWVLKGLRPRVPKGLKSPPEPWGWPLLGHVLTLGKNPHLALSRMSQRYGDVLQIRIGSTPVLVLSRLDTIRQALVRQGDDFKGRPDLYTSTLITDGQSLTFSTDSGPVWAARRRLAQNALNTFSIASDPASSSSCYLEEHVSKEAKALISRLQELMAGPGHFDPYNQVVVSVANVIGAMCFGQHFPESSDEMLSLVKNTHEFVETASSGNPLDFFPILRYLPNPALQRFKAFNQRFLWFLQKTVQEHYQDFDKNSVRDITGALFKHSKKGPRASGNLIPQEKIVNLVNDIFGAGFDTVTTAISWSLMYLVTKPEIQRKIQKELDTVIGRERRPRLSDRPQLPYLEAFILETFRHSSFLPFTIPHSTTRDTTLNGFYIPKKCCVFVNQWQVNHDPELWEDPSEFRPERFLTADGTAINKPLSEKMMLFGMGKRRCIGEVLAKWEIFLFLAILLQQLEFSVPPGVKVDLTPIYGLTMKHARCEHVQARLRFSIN

Cytochrome P450 2C9 = Cytochrome P450 2C9 (Homo sapiens, UniProt P11712); test: Inhibition of CYP2C9 (unknown origin); type: ADME
Cytochrome P450 3A4 = Cytochrome P450 3A4 (Homo sapiens, UniProt P08684); test: Inhibition of CYP3A4 (unknown origin); type: ADME
Cytochrome P450 2D6 = Cytochrome P450 2D6 (Homo sapiens, UniProt P10635); test: Inhibition of CYP2D6 (unknown origin); type: ADME
[7] = Inhibition of HCV genotype 1b isolate BK NS5B Cdelta21 RNA dependent RNA polymerase L419M mutant using [3H]UTP as substrate incubated for 25 mins prior to substrate addition measured after 120 mins by scintillation proximity assay; parameters: species or system Hepatitis C virus (isolate BK)
[8] = target: RNA-directed RNA polymerase (Hepacivirus hominis, UniProt O39930, M423T); test: Inhibition of HCV genotype 1b isolate BK NS5B Cdelta21 RNA dependent RNA polymerase M423T mutant using [3H]UTP as substrate incubated for 25 mins prior to substrate addition measured after 120 mins by scintillation proximity assay; parameters: species or system Hepatitis C virus (isolate BK)
[9] = target: RNA-directed RNA polymerase (Hepacivirus hominis, UniProt O39930, M414T); test: Inhibition of HCV genotype 1b isolate BK NS5B Cdelta21 RNA dependent RNA polymerase M414T mutant using [3H]UTP as substrate incubated for 25 mins prior to substrate addition measured after 120 mins by scintillation proximity assay; parameters: species or system Hepatitis C virus (isolate BK)
[10] = target: RNA-directed RNA polymerase (Hepacivirus hominis, UniProt O39930, P495S); test: Inhibition of HCV genotype 1b isolate BK NS5B Cdelta21 RNA dependent RNA polymerase P495S mutant using [3H]UTP as substrate incubated for 25 mins prior to substrate addition measured after 120 mins by scintillation proximity assay; parameters: species or system Hepatitis C virus (isolate BK)
RNA-directed RNA polymerase (Hepacivirus hominis, UniProt O39930, P495S), sequence (O39930 entry or part of it P495S): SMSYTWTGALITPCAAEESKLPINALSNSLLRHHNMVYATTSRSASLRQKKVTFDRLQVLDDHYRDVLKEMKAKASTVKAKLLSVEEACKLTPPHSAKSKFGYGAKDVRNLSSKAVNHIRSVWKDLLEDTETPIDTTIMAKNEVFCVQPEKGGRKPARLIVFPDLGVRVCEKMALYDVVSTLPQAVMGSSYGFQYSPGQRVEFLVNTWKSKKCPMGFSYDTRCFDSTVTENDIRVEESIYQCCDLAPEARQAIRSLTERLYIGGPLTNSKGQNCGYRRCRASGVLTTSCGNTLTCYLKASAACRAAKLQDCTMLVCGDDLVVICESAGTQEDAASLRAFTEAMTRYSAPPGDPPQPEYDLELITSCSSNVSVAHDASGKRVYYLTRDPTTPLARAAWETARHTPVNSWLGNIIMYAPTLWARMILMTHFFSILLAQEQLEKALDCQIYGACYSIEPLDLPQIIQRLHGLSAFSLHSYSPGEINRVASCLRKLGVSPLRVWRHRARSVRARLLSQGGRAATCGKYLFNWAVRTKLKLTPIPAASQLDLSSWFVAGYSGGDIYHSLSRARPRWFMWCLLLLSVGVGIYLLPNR

Cytochrome P450 2C9, sequence (P11712 whole entry): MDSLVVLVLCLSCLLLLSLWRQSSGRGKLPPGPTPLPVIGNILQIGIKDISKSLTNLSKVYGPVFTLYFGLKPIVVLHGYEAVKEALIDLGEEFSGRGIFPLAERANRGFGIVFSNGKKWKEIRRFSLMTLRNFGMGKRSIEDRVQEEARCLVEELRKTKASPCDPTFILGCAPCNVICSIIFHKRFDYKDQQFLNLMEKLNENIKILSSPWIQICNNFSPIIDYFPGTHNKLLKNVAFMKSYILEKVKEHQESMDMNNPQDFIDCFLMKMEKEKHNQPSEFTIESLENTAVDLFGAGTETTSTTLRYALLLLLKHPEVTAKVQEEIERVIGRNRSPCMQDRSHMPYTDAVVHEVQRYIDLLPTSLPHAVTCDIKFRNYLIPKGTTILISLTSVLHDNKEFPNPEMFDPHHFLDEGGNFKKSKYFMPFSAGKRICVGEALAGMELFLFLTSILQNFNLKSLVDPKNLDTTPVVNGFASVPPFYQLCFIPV
Cytochrome P450 2C19, sequence (P33261 whole entry): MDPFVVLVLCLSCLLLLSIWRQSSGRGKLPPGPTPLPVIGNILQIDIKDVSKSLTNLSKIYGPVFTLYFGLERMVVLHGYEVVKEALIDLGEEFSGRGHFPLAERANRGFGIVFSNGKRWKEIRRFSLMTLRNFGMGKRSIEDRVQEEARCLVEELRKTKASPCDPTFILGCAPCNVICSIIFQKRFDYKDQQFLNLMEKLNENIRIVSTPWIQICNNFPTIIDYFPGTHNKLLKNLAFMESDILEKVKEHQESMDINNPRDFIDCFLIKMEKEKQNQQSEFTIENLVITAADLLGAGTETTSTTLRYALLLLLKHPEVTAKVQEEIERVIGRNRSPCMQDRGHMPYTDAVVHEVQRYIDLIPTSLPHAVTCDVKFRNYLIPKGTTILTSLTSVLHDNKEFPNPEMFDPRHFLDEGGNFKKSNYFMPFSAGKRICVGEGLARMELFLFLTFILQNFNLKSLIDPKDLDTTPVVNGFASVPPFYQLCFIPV
RNA-directed RNA polymerase (Hepacivirus hominis, UniProt O39930, M423T), sequence (O39930 entry or part of it M423T): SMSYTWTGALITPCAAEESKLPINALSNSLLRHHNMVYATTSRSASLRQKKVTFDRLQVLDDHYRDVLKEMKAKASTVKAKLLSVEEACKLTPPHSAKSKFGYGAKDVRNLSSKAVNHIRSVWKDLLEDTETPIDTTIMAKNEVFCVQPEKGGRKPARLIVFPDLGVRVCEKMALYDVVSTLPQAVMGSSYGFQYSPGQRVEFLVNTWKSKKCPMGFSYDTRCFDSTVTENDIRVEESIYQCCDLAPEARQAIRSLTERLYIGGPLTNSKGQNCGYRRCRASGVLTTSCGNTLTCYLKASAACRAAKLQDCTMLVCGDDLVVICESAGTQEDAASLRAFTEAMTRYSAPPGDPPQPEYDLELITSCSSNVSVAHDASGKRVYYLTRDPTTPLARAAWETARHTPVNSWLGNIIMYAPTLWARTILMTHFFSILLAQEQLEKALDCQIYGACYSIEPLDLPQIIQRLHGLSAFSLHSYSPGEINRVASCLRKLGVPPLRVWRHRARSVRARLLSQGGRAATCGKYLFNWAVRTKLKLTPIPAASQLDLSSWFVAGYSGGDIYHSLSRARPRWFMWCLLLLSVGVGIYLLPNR
Cytochrome P450 2D6, sequence (P10635 whole entry): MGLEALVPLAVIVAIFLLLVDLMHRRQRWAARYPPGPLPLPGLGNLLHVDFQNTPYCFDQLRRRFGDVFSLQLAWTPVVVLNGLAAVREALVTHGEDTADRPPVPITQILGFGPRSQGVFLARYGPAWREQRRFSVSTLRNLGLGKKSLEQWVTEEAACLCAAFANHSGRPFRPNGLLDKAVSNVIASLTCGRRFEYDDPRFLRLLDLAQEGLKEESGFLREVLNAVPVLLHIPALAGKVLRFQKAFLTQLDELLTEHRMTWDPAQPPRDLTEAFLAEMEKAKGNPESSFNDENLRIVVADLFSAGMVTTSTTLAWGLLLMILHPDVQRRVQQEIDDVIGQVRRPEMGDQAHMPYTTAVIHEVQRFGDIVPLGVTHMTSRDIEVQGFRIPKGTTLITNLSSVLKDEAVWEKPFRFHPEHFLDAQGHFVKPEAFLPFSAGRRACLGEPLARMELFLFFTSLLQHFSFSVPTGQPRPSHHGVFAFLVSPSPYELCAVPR
Cytochrome P450 3A4, sequence (P08684 whole entry): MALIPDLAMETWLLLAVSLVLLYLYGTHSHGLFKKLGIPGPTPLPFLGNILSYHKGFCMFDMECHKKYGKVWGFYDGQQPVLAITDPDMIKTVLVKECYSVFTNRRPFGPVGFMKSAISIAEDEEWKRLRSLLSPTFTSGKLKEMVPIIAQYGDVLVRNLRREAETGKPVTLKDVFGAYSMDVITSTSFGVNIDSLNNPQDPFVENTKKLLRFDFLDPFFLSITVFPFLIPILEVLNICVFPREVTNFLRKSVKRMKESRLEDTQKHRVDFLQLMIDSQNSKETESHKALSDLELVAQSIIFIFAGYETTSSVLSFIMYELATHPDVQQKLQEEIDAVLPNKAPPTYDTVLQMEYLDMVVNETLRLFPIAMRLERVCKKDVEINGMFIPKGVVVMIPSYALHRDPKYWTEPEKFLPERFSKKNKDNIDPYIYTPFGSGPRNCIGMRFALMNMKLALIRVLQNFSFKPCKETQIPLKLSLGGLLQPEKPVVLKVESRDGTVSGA
RNA-directed RNA polymerase (Hepacivirus hominis, UniProt O39930, M414T), sequence (O39930 entry or part of it M414T): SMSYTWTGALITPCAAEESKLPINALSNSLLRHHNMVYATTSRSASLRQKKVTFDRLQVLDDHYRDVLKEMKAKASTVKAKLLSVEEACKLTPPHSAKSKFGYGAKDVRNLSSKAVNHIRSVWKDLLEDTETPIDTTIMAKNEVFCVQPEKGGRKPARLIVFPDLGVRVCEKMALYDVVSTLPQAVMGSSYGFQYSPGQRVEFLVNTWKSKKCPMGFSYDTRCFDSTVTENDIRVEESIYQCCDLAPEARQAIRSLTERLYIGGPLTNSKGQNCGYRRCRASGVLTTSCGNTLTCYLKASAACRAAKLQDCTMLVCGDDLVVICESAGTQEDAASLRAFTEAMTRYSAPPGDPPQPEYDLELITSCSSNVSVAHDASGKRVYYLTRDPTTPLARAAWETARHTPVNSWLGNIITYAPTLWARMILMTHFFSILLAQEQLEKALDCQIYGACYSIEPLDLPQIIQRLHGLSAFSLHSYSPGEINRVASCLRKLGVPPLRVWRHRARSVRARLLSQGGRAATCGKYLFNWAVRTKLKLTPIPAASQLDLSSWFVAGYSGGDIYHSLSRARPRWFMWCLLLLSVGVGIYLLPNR

Structure (SMILES): O=C(O)c1ccc(Cl)cc1NS(=O)(=O)c1cc(Cl)c(Cl)cc1Cl
- pIC50 [1]: 4.96

Structure (SMILES): O=C(O)c1ccc(-c2ccccc2)cc1NS(=O)(=O)c1ccc(Br)s1
- pIC50 [1]: 5.17

Structure (SMILES): O=C(O)c1ccc(Oc2ccccc2)cc1NS(=O)(=O)c1ccc(Br)s1
- pIC50 [1]: 6.21

Structure (SMILES): Cc1ccc(S(=O)(=O)Nc2ccc(Oc3ccccc3)cc2C(=O)O)cc1
- half-life at 10 µM [2]: 11 min
- Papp A→B [3]: 22 nm/s
- solubility thermodynamic at 24 h [4]: > 0.9 mg/mL
- Ratio IC50 [5]: 15
- pIC50 [6]: < 4.00
- pIC50 (Cytochrome P450 2C19): < 4.52
- Activity (Hepatitis C virus): inactive
- pIC50 (Cytochrome P450 1A2): 5.74
- pIC50 (Cytochrome P450 2C9): 5.52
- pIC50 (Cytochrome P450 3A4): < 4.52
- pIC50 (Cytochrome P450 2D6): < 4.52
- pIC50 [1]: 7.07
- pIC50 [7]: 5.92
- pIC50 [8]: 6.77

Structure (SMILES): O=C(O)c1ccc(Cl)cc1NS(=O)(=O)c1cc(F)c(Br)cc1F
- pIC50 [1]: 5.17

Structure (SMILES): Cc1ccc(S(=O)(=O)Nc2cc(Oc3ccccc3)ccc2C(=O)O)cc1
- half-life at 10 µM [2]: 17 min
- Papp A→B [3]: 24 nm/s
- solubility thermodynamic at 24 h [4]: > 0.7 mg/mL
- pIC50 [9]: 7.28
- Ratio IC50 [5]: 15
- pIC50 [6]: < 4.00
- pIC50 (Cytochrome P450 2C19): 5.10
- Activity (Hepatitis C virus): inactive
- pIC50 (Cytochrome P450 1A2): < 4.52
- pIC50 (Cytochrome P450 2C9): 5.51
- pIC50 [10]: 7.11
- pIC50 (Cytochrome P450 3A4): < 4.52
- pIC50 (Cytochrome P450 2D6): < 4.52
- pIC50 [1]: 7.14
- pIC50 [7]: 5.92
- pIC50 [8]: 7.00

Structure (SMILES): O=C(O)c1cc(Br)ccc1NS(=O)(=O)c1cc(Cl)c(Cl)cc1Cl
- pIC50 [1]: 5.05

Structure (SMILES): O=C(O)c1ccc(Oc2ccccc2)cc1NS(=O)(=O)c1ccc(Br)cc1F
- pIC50 [1]: 6.51

Structure (SMILES): O=C(O)c1cc(Oc2ccccc2)ccc1NS(=O)(=O)c1ccc(Br)cc1F
- half-life at 10 µM [2]: 27 min
- Papp A→B [3]: < 1 nm/s
- solubility thermodynamic at 24 h [4]: > 0.9 mg/mL
- pIC50 [9]: 7.28
- Ratio IC50 [5]: 15
- pIC50 [6]: < 4.00
- pIC50 (Cytochrome P450 2C19): 5.96
- Activity (Hepatitis C virus): inactive
- pIC50 (Cytochrome P450 1A2): < 4.52
- pIC50 (Cytochrome P450 2C9): 5.96
- pIC50 [10]: 7.03
- pIC50 (Cytochrome P450 3A4): 4.59
- pIC50 (Cytochrome P450 2D6): < 4.52
- pIC50 [1]: 6.96
- pIC50 [7]: 5.74
- pIC50 [8]: 6.70

Structure (SMILES): O=C(O)c1ccccc1NS(=O)(=O)c1cc(Cl)c(Cl)cc1Cl
- pIC50 [1]: 4.59

Structure (SMILES): Cc1cc(NS(=O)(=O)c2cc(Cl)c(Cl)cc2Cl)no1
- pIC50 [1]: 4.00

Further lines, results first:

- pIC50 [1]: 5.35
Structure (SMILES): O=C(O)c1cc(Br)ccc1NS(=O)(=O)c1cc(F)c(Br)cc1F

- pIC50 [1]: 4.37
Structure (SMILES): O=C(O)c1cc(Br)ccc1NS(=O)(=O)c1ccccc1

- pIC50 [1]: 5.08
Structure (SMILES): O=C(O)c1cc(Br)ccc1NS(=O)(=O)c1ccc(Cl)c(Cl)c1

- pIC50 [1]: 5.34
Structure (SMILES): O=C(O)c1ccc(Cl)cc1NS(=O)(=O)c1ccc(Br)s1

- pIC50 [1]: 6.26
Structure (SMILES): O=C(O)c1cc(Oc2ccccc2)ccc1NS(=O)(=O)c1ccc(Br)s1

- pIC50 [1]: 5.43
Structure (SMILES): O=C(O)c1cc(-c2ccccc2)ccc1NS(=O)(=O)c1ccc(Br)s1

- pIC50 [1]: 5.21
Structure (SMILES): O=C(O)c1cc(Br)ccc1NS(=O)(=O)c1ccc(Br)s1
